Several values for one entry are separate records, joined by “and”; a condition that tells them apart may be missing. Identical values can stand only once. Like-named read-outs stand apart in the source and are kept apart here.
Tests used:
MDCK cells [1] = test: cells; type: cell-based, canine
MDCK cells [2] = test: cells; type: cell-based, canine; remark: listed apart in the source
soluble gp120 (sgp120) = soluble gp120 (sgp120) (Human immunodeficiency virus type 1 group M subtype B, UniProt P03375)
SARS virus [3] = type: cell-based
Texas/36/91 (H1N1) = type: cell-based, influenza A
[4] = system: fusion of CD4 β-gal cells with HL 2/3 cells; type: cell-based
Shandong/09/93 (H3N2) = type: cell-based, influenza A
SARS virus [5] = system: SARS virus
Vero76 cells [6] = type: cell-based
HIV-1 Ba-L = type: cell-based; conditions: HIV primary isolate Ba-L; macrophage; M-tropic; p24 ELISA; mean value
Los Angeles/2/87 (H3N2) = type: cell-based, influenza A
Zaire ebola virus = type: cell-based
gp160 = gp160 (Human immunodeficiency virus type 1 group M subtype B, UniProt P03375); conditions: 100 ng protein standard, Griffithsin 100 ng/well; FIG. 5a
Washington/05/96 (H3N2) = type: cell-based, influenza A
Sydney/5/97 (H3N2) = type: cell-based, influenza A
[7] = molecular target: sgp120 binding of CD4 on CEM-SS cells (Human immunodeficiency virus type 1 group M subtype B, UniProt P03375); conditions: pretreatment of sgp120 with Griffithsin, Leu3a epitope availability
HIV-1 RF = type: cell-based
HCV RNA replicon = type: cell-based, Hepatitis C virus; conditions: for Inhibition of Viral Activity (% reduction Luc): 20 µM
Panama/2007/99 (H3N2) = type: cell-based, influenza A
sCD4 = sCD4 (Homo sapiens, UniProt P01730); type: binding
HIV = type: cell-based
From the text: Potent cytoprotective and anti-replicative activities of both natural and His-tagged recombinant Griffithsin were observed using the HIV-1RF strain of HIB in CEM-SS cells. […] In contrast, infectivity of cell-free virus was abolished after pretreatment and removal of Griffithsin.

SARS virus [8] = system: SARS virus; remark: listed apart in the source
HIV-1 ROJO = type: cell-based; conditions: HIV primary isolate ROJO; PBMC; T-tropic; supernatant RT activity; mean value
[9] = system: bovine IgG, α-acid glycoprotein, and aprotinin; type: binding
[10] = system: cell-cell fusion of uninfected and chronically infected CEM-SS; type: cell-based
Vero76 cells [11] = type: cell-based; remark: listed apart in the source
CEM-SS cells = system: CEM-SS cells; parameters: direct cytotoxicity to the host cells: dose or concentration left out as unconfirmed
[12] = system: T-lymphocytes (CEM-SS), PBMCs, macrophages; conditions: concentrations 1000-fold higher than the EC50 values
HIV-1IIIB = type: cell-based; conditions: concentration-dependent manner
HIV-1 ADA = type: cell-based; conditions: HIV primary isolate ADA; macrophage; M-tropic; p24 ELISA; mean value
Huh7 ET cell line = conditions: for Cytotoxicity (% reduction in rRNA)*: single high-test concentration, compared to control cell
gp120 [13] = type: binding, HIV-1; conditions: 100 ng protein standard, Griffithsin 100 ng/well; FIG. 5a
gp120 [14] = molecular target: gp120 (Human immunodeficiency virus type 1 group M subtype B, UniProt P03378); type: binding, HIV-1; conditions: glycosylated and nonglycosylated HIV-1SF2 gp120, serial dilutions; FIG. 5b
Beijing/262/95 (H1N1) = type: cell-based, influenza A
[15] = Canis lupus familiaris, MDCK, 72 h

gp120 (Human immunodeficiency virus type 1 group M subtype B, UniProt P03378), sequence (P03378 32-509 limits assumed): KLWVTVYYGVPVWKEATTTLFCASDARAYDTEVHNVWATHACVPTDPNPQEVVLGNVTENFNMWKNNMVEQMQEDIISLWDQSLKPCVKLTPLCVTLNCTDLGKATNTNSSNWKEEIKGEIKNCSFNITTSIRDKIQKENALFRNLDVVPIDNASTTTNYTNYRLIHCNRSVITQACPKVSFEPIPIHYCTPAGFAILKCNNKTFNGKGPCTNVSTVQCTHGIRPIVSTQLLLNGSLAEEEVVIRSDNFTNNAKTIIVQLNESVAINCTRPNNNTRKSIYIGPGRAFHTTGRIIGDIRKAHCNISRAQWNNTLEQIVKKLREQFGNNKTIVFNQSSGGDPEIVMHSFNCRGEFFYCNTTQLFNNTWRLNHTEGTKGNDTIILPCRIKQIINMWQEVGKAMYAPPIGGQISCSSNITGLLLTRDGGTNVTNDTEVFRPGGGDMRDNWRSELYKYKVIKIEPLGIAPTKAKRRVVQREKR

NC(=O)c1ncn([C@@H]2O[C@H](CO)[C@@H](O)[C@H]2O)n1 [Ribavirin, reference compound]
IC50 (MDCK cells [1]; [15]): > 100 µg/mL
IC50 (MDCK cells [2]; [15]): > 100 µg/mL

Cyanovirin-N [reference compound]
recognition of sgp120 by Griffithsin (soluble gp120 (sgp120); effect of cyanovirin-N): interfered strongly

Griffithsin
EC50 (SARS virus [3]): 4 µg/mL and 2 µg/mL
average EC50 (SARS virus [3]): 3 µg/mL
EC50 (Texas/36/91 (H1N1)): 0.06 µg/mL
subsequent binding of cyanovirin-N to sgp120 (soluble gp120 (sgp120); Griffithsin pretreatment of sgp120): did not block
recognition of sgp120 by mAbs that recognize the C1 region (or V3 loop), and the mAb 17b (soluble gp120 (sgp120); effect of Griffithsin): little or no effect
recognition of sgp120 by the mAbs 48d and 2G12 (soluble gp120 (sgp120); effect of Griffithsin): interfered strongly
sCD4 and mAb IgG 1b12 binding to sgp120 (soluble gp120 (sgp120); effect of Griffithsin): moderately interfered
subsequent binding of Griffithsin to sgp120 (soluble gp120 (sgp120); sgp120 pretreated with sCD4 and the mAbs IgG1b12, 48d, and 2G12): did not block
IC50 (MDCK cells [1]): >10 µg/mL
fusion of CD4 β-gal cells with HL 2/3 cells [4]: inhibited
EC50 (Shandong/09/93 (H3N2)): 0.018 µg/mL
EC90 (SARS virus [5]): 5 µg/mL
IC50 (Vero76 cells [6]): >100 µg/mL
toxicity to the MDCK cell line (MDCK cell line): not found to be toxic
EC50 (HIV-1 Ba-L): 0.098 nM
EC50 (Los Angeles/2/87 (H3N2)): 0.037 µg/mL
anti-ebola virus activity (Zaire ebola virus): low μg/ml range
interaction with gp160 (ELISA) (gp160): direct interaction
EC50 (Washington/05/96 (H3N2)): 0.016 µg/mL
EC50 (Sydney/5/97 (H3N2)): 0.016 µg/mL
CD4-dependent sgp120 binding [7]: completely blocked
anti-HIV activity, EC50 (HIV-1 RF; CEM-SS cells infected with HIV-1, FIG. 4): low nanomolar range
inhibition of virus-induced cell killing (HIV-1 RF; HIV-1RF in CEM-SS cells): concentration-dependent inhibition
supernatant reverse transcriptase and viral core antigen, p24 (HIV-1 RF; HIV-1RF in CEM-SS cells): concomitant decreases
EC50 (HIV-1 RF; HIV-1 laboratory strain RF, CEM-SS, T-tropic, XTT-tetrazolium, mean value): 0.043 nM
EC50 (anti-HCV) (HCV RNA replicon): 7.17 µg/mL
Inhibition of Viral Activity (% reduction Luc) (HCV RNA replicon): 60%
IC50 (MDCK cells [2]): >10 µg/mL
EC50 (Panama/2007/99 (H3N2)): 0.006 µg/mL
interaction with cCD4 (ELISA) (sCD4): little or no detectable interaction
infectivity of cell-free virus (HIV; after pretreatment of virus and removal of Griffithsin): abolished
susceptibility of pretreated uninfected CEM-SS cells to HIV infection (HIV; after the removal of Griffithsin): retained normal susceptibility
EC50 (SARS virus [8]): 14 µg/mL
EC50 (HIV-1 ROJO): 0.63 nM
interaction with other reference proteins (ELISA) [9]: little or no detectable interaction
inhibition of cell-cell fusion [10]: concentration-dependent inhibition
IC50 (Vero76 cells [11]): >100 µg/mL
IC50 in each assay (Vero76 cells [11]): greater than 100 μg/ml
direct cytotoxicity to the host cells (CEM-SS cells; highest tested concentrations): no significant evidence of direct cytotoxicity
direct cytotoxicity to the uninfected control cells (CEM-SS cells; highest tested concentrations of Griffithsin (78.3 to 783 nM)): little or no evidence of direct cytotoxicity
toxicity against any of the cell lines [12]: did not show any toxicity
cell-free HIV-1IIIB fusion and infection of β-gal cells (HIV-1IIIB): inhibited
EC50 (HIV-1 ADA): 0.5 nM
toxicity level (cytotoxicity) (Huh7 ET cell line; highest test concentration of 10 μg/ml, FIG. 7): never reached a toxicity level
overall reduction in cell growth (Huh7 ET cell line; single high-test concentration of 20 μM, 72 hr): 25%
Cytotoxicity (% reduction in rRNA)* (Huh7 ET cell line; 72 hr): 74.5%
interaction with gp120 (ELISA, absorbance at 405 nm) (gp120 [13]): direct interaction
binding of Griffithsin to sgp120 (gp120 [14]): both concentration-dependent and glycosylation-dependent
EC50 (Beijing/262/95 (H1N1)): 0.07 µg/mL

IFN-α [reference compound]
Inhibition of Viral Activity (% reduction Luc) (HCV RNA replicon): 98.6%
Cytotoxicity (% reduction in rRNA)* (Huh7 ET cell line; 72 hr): 98.4%

From patent US8088729B2 (priority 2005, dated 2012)
